Measurements reported in patent US20110257146A1, “Method of Treating Kcnq Related Disorders Using Organozinc Compounds” (The johns Hopkins University, priority 2006, published 2011).
Like-named read-outs stand apart in the source and are kept apart here.

Tests used:
KCNQ2 [1] = target: T1, KCNQ2 (Rattus norvegicus, UniProt O88943); assay: Whole-cell voltage clamp of CHO cells expressing KCNQ2; type: cell-based; parameters: expressed in transfected cells; host or cells: CHO cells; settings: for effect on KCNQ2 current amplitude of metal salt added to sodium pyrithione perfusion: metal salt (ZnSO4 10 μM) supplemented to 20 μM sodium pyrithione
Protocol: Cell culture and transient transfection—Chinese Hamster Ovary (CHO) cells were grown in 50/50 DMEM/F12 (Cellgro) with 10% FBS (Gibco), 100 U/ml penicillin (Cellgro), 100 μg/ml streptomycin (Cellgro) and 2 mM L-glutamine (Gibco). At 24 hours before transfection, cells were split and plated in 60 mm dishes and were transfected with Lipofectamine2000™ reagent (Invitrogen) according to the manufacturer's instruction. At 24 hours after transfection, cells were split and re-plated onto coverslips coated with poly-L-lysine (Sigma). Plasmid expressing CD4 cDNA as a marker was cotransfected with the channel cDNAs of hKCNQ1 (from Dr. Michael Sanguinetti), hKCNQ4 (from Dr. Vitya Vardanyan), rKCNQ2, rKCNQ3, and hKCNQ5 (from Drs. David McKinnon, Mark Shapiro, and Thomas Jentsch). Prior to recording, anti-CD4 Dynabeads (Dynal. Biotech. Inc.) were added into the medium to allow for identification of the transfected cells. Stable lines expressing Kv2.1, hERG, and Kv4.2 were generated by standard protocols using pcDNA3.1 and maintained at complete medium supplemented with 500 μg/ml G418. The N-type calcium channel stable line was a kind gift from Drs. Diane Lipscombe and David Yue.
(§1) Electrophysiological Recording—Standard whole-cell recording was used. Pipettes were pulled from borosilicate glass capillaries (TW150-4, World Precision Instruments, Sarasota, Fla.). When filled with the intracellular solution, the pipettes have resistances of […]. During the recording, constant perfusion of extracellular solution was maintained using a BPS perfusion system (ALA, Westbury, N.Y.). Pipette solution contained (mM): KCl 145, MgCl2 1, EGTA 5, HEPES 10, MgATP 5 (pH 7.3); extracellular solution contained (mM): NaCl 140, KCl 3, CaCl2 2, MgCl2 1.5, HEPES 10, glucose 10 (pH 7.4). Current and voltage were recorded using an Axopatch-200A amplifier, filtered at 1 kHz and digitized using a DigiData 1322A with pClamp 9.2 software (Axon Instruments, Foster City, Calif.). Series resistance compensation was also used and set to 60-80%.
Data and Statistical Analysis—Patch-clamp data were preprocessed using Clampfit 9.2 (Axon Instruments, Foster City, Calif.) and then analyzed in Origin 7 (OriginLab, Northampton, Mass.). The activation curve was fitted by the Boltzmann equation: G=(Gmax−Gmin)/[1+exp[(V−V1/2)/S]]+Gmin, where Gmax is the maximum conductance, Gmin is the minimum conductance, V1/2 is the voltage for half of the total numbers of channels to open, and S is the slope factor. The dose response curve was fitted by the Hill equation: E=Emax/(1+(EC50/C)^P), where Emax is the maximum response, C is the drug concentration, EC50 is the drug concentration producing half of the maximum response, and P is the Hill coefficient. The deactivation trace was fitted by the standard exponential equation: I(t)=ΣIi*exp(−t/τi), where I is the current, t is the time and τ is the time constant. Data are presented as means±SE. Significance was estimated using paired two-tailed Student's t-test.

TRPM8 = TRPM8 (Homo sapiens, UniProt Q7Z2W7); settings: shift from 32 mV; cited from earlier work
KCNQ2(Y284C) = target: T2, KCNQ2(Y284C) (Rattus norvegicus, UniProt O88943, Y284C); assay: Whole-cell recording of KCNQ2(Y284C) BFNC mutant in CHO cells; type: cell-based; settings: retigabine
T2 construct: expressed in transfected cells; host or cells: CHO cells, transient
Protocol: (§2) FIG. 11. ZnPy effects on BFNC mutant channels expressed in CHO cells. A. whole-cell currents of KCNQ2(R207W), KCNQ2(Y284C), and KCNQ2(A306T) were recorded in the absence (left) and presence (right) of 10 μM ZnPy, Vh was −80 mV, in 10 mV voltage steps from −70 mV to +50 mV. B. a histogram plotting potentiation effects on KCNQ2 wild type (wt) and BFNC mutants (R207W, Y284C and […]) by ZnPy (filled box) and retigabine (open box) (n≧4, * p<0.001, ** p<0.05).
(§3) Mutagenesis—Starting from KCNQ cDNAs, the KCNQ2 point mutants were constructed by recombinant PCR and verified by sequencing.
as §1, with “Series resistance compensation was also used and set to 60-80%.” left out

KCNQ2(A306T) = target: T3, KCNQ2(A306T) (Rattus norvegicus, UniProt O88943, A306T); assay: Whole-cell recording of KCNQ2(A306T) mutant in CHO cells; type: cell-based; settings: retigabine
T3 construct: expressed in transfected cells; host or cells: CHO cells
Protocol: FIG. 9. KCNQ2 point mutants selectively lose ZnPy sensitivity. […] Each mutation site was indicated based on the predicted transmembrane regions. Dashed line indicates the potentiation level of wt KCNQ2 channel in the absence of ZnPy. […] C. Modeling of the S5-pore-S6 region of KCNQ2.
as §2, §3, §1

KCNQ2(R207W) = target: T4, KCNQ2(R207W) (Rattus norvegicus, UniProt O88943, R207W); assay: Whole-cell recording of KCNQ2(R207W) BFNC mutant in CHO cells; type: cell-based; settings: retigabine
T4 construct: expressed in transfected cells; host or cells: CHO cells, transient
Protocol: as §2, §3
as §1, with “Series resistance compensation was also used and set to 60-80%.” left out

[2] = In vivo Geller conflict test for anxiolytics; parameters: species or system rats; settings: positive control
Protocol: In the Geller conflict test (see, e.g., Geller & Seifter, Psychophamracologia 1:482-492 (1960: Pollard & Howard, Psychopharmacology 62:117-121 (1979)), rats are trained to press a lever to receive food pellets during daily 1 hour sessions. The sessions are divided into punished and unpunished phases. During the four, three-minute punished periods, a light signals that each lever press will produce both a pellet and a foot shock (punishment), which reduces lever pressing. The number of punished lever presses on test days (when test compound is administered) is compared to the mean on baseline days. The positive control, chlordiazepoxide, increases punished lever pressing by >50%. A compound that produces an increase of approximately 40% or greater is generally considered to be of interest as a rapid-onset anxiolytic.
A compound with selective KCNQ1 channel opening activity increases punished responding in a dose-dependent manner. The increase in punished responding is statistically significant (paired t-test p<0.05) at 10, 17, 30, and 56 mg/kg PO with increases of 40% or greater at 30 and 56 mg/kg.

KCNQ2 [3] = target: T1, KCNQ2; assay: Single channel outside-out patch recording of KCNQ2; type: cell-based; parameters: expressed in transfected cells; host or cells: CHO cells; settings: 50 μM linopirdine
Protocol: For single channel recording procedure, outside-out patch recording was used. The pipettes had resistances of 7-15 MΩ when filled with the intracellular solution of the following composition (mM): KCl 145, MgCl2 1, EGTA 5, HEPES 10, MgATP 5 (pH 7.3). Extracellular solution contained (mM): NaCl 150, KCl 5, CaCl2 2, MgCl2 1, HEPES 10, glucose 10 (pH 7.4). Current and voltage were recorded using an Axopatch-200B amplifier, sample at 4 kHz and filtered at 200 Hz, and digitized using a DigiData 1322A with pClamp 9.2 software (Axon Instruments, Foster City, Calif.).
The open probability (Po) and single channel current (i) were calculated by fitting all-point histograms with single- or multi-Gaussian curves. The ratio of the area under the fitted ‘open’ Gaussian to the total area under the entire Gaussian was taken as Po, and the difference between the fitted “closed” and “open” peaks was taken as i, single channel conductance (γ) was calculated by the equation: γ=i/(V−V5).

hippocampal neurons = assay: Membrane potential and elicited action potentials of isolated hippocampal neurons; type: cell-based, rat; settings: 15 μM linopirdine added after 10 μM ZnPy
Protocol: FIG. 10. ZnPy potentiation of native M-current. A. M current recorded from an isolated rat dorsal root ganglion neuron, Vh was −60 mV, stepped to −20 mV, followed by a step to −50 mV, and stepped back to −20 mV. B. Histograms show M-current amplitudes in the presence and absence of 10 μM ZnPy (n=10, * p<0.001). M-current amplitudes were measured by fitting the IM relaxation with an exponential equation. The recording bath solution includes 1 μM TTX, 0.2 mM TEA, 1 mM 4-AP, 50 μM CNQX, and 10 μM bicuculline. C. Membrane potential of an isolated hippocampal neuron was monitored when 10 μM ZnPy was applied in bath solution followed by the addition of 15 μM linopirdine. D. Action potentials elicited by 200 pA current injection to a patched hippocampal neuron. The ZnPy treatments are as indicated.
Neuron Culture—Dorsal root ganglia (DRG) was collected from fourteen-day-old CD rat and incubated in collagenase (sigma, 500 U/ml, 15 min) and then trypsin (Sigma, 1 mg/ml, 30 min) at 37° C. Single DRG neurons were isolated by mechanical trituration with a fire-polished glass Pasteur pipette. Hippocampal tissue was dissected out from CD rat postnatal day 0. The tissue was digested with papain (Worthington Biochem, 20 U/ml, 30 min) and resuspended into single cells. The single-cell suspension was plated onto a monolayer of glial cells that were growing on coated cover slips. Cytosine-1-D-arabinofuranoside at 5 μM was added into the culture medium 24-48 hours later to arrest glial cell proliferation. The culture medium consisted of Neurobasal™ medium with B-27 supplement (Gibco), penicillin/streptomycin and 2 mM L-glutamine. All cells were maintained at 37° C. with 5% CO2 prior to recording.
Electrophysiological Recording—Standard whole-cell recording was used. Pipettes were pulled from borosilicate glass capillaries (TW150-4, World Precision Instruments, Sarasota, Fla.). […] Current and voltage were recorded using an Axopatch-200A amplifier, filtered at 1 kHz and digitized using a DigiData 1322A with pClamp 9.2 software (Axon Instruments, Foster City, Calif.). […]

Sequence of TRPM8 (Q7Z2W7 whole entry, species assumed): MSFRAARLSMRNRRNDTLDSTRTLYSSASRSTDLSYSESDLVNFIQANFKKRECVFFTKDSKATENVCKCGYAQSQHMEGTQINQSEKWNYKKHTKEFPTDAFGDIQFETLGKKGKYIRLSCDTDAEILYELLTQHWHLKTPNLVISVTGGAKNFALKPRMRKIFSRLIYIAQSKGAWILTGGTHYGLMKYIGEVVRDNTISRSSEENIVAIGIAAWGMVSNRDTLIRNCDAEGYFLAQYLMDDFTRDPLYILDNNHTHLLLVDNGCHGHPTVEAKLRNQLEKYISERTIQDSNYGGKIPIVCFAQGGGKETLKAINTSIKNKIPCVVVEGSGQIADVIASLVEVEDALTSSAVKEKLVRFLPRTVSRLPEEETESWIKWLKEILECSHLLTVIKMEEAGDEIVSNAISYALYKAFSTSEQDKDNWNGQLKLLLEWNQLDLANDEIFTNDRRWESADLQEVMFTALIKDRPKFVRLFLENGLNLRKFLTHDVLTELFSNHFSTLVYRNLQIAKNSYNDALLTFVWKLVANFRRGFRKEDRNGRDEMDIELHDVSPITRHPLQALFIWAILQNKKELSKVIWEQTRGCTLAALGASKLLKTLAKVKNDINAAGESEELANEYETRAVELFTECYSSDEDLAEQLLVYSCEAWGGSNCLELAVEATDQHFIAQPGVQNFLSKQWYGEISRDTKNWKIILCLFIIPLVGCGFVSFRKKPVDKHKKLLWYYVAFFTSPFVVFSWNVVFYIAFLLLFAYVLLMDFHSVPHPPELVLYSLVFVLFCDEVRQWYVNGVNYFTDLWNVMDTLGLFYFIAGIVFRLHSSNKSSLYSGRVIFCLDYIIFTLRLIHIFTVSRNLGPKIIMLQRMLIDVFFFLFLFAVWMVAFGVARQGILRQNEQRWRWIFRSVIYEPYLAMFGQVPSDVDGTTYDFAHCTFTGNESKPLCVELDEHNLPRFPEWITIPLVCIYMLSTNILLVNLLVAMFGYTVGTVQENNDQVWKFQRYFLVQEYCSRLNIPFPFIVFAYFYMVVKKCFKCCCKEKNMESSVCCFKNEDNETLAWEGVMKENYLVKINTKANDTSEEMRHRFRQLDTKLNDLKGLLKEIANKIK

With `Oc1c(I)cc(I)c2cccnc12` [5,7-diiodo-8-hydroxyquinoline] the “potentiation of KCNQ2 current amplitude by zinc ionophores” value (KCNQ2 [1]; +50 mV) was “None displayed any potentiation effect on current amplitude”.

In the case of `[Cl][Cd][Cl]` [CdCl2], the “effect on KCNQ2 current amplitude of metal salt added to sodium pyrithione perfusion” value (“effect … to sodium pyrithione perfusion” for short) (KCNQ2 [1]) is reported as “did not induce any potentiation”.

For `O=S(=O)([O-])[O-].[Cu+2]` [CuSO4], the “effect … to sodium pyrithione perfusion” value (KCNQ2 [1]) was “did not induce any potentiation”.

For `CC1CCC(C(C)C)C(O)C1` (centres unmarked) [Menthol], the “V1/2 after menthol binding” value (TRPM8) is listed as −31 mV.

With `Oc1ccc(N=Nc2ccccn2)c(O)c1` [PAR, 4-(2)-(pyridylazo) resorcinol] the “effect on potentiation induced by sodium pyrithione plus ZnSO4” value (KCNQ2 [1]; 100 μM PAR) was “abolished” and the “effect on KCNQ2 channel activity, compound alone” value (KCNQ2 [1]; PAR itself) was “had no effect on KCNQ2 channel activity”.

With `CCOC(=O)Nc1ccc(NCc2ccc(F)cc2)cc1N` [Retigabine, retigabine] the current potentiation (KCNQ2(Y284C)) was under 50%, the current potentiation (KCNQ2(A306T)) was under 50% and the current potentiation (KCNQ2(R207W)) was under 50%.

With `CC[N+](CC)(CC)CC` [TEA, tetraethylammonium] the “effect on KCNQ2 current” value (KCNQ2 [1]) was “completely blocked”.

In the case of `O=S(=O)([O-])[O-].[Zn+2]` [ZnSO4], the “effect … to sodium pyrithione perfusion” value (KCNQ2 [1]) is reported as “marked increase in current amplitude”.

For `[Zn+2]` [Zn^2+], the “effect on KCNQ2 channel, zinc ion alone” value (KCNQ2 [1]) was “cannot induce any detectable effect”.

With `CNC1=Nc2ccc(Cl)cc2C(c2ccccc2)=[N+]([O-])C1` [chlordiazepoxide] the “increase of punished lever pressing” value [2] was over 50%.

With `O=C1N(c2ccccc2)c2ccccc2C1(Cc1ccncc1)Cc1ccncc1` [linopirdine] the “effect on single channel activity” value (KCNQ2 [3]) was “fully blocked”, the “effect on KCNQ2 current” value (KCNQ2 [1]; 30 μM linopirdine, +50 mV) was “rapid inhibition” and the “effect on ZnPy-induced hyperpolarization” value (hippocampal neurons) was “completely abolished the hyperpolarization of membrane potential”.

For `[Na+].[O-][n+]1ccccc1[S-]` [sodium pyrithione], the “effect on KCNQ2 current amplitude” value (KCNQ2 [1]) was “no change in current amplitude”.
